Assay results published in patent US6472348B1, “Pyridone derivatives and herbicides” (Kumiai Chemical Industry Co., Ltd., priority 1996, dated 2002).

What was measured:
[1] = tested on: wheat (Tr); experiment: Test Example 9: crop plant selectivity by upland field foliage treatment (wheat), phytotoxicity; conditions: dose 1.6 g ai/10a, 14th day after treatment;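 also: grade of crop injury; 5 = at least 90%; 4 = 70 to 90%; 3 = 50 to 70%; 2 = 30 to 50%; 1 = 10 to 30%; 0 = under 10%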
In short: (§1)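 Sand-filled pot, wheat + weeds co-sown; greenhouse 2 wk, then foliage treatment; greenhouse culture continued; visual scoring of weed control and crop injury at 14 d post-treatment per grading scale.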

[2] = tested on: common lambsquarters (Ch); experiment: Test Example 10: crop plant selectivity by upland field foliage treatment (soybean), herbicidal effects; format: in vivo; conditions: dose 1.6 g ai/10a, 14th day after treatment
Procedure: (§2) (Test on Crop Plant Selectivity by Upland Field Foliage Treatment)
(§3) In a plastic pot (surface area: 600 cm^2) filled with sand, soybean (Gl), pale smartweed (Po), slender amaranth (Am), common lambsquarters (Ch) and China jute (Ab) were sown and cultured in a green house for 2 weeks. […] The plants were then cultured in a green house, and the evaluation of the herbicidal effects and phytotoxicity was conducted on the 14th day after the treatment in accordance with the standards as identified in Table 47.

[3] = tested on: China jute (Ab); experiment: as above; format: in vivo; conditions: dose 1.6 g ai/10a, 14th day after treatment
Procedure: as §2, §3

[4] = tested on: slender amaranth (Am); experiment: as above; format: in vivo; conditions: dose 1.6 g ai/10a, 14th day after treatment
Procedure: as §2, §3

[5] = tested on: pale smartweed (Po); experiment: as above; format: in vivo; conditions: dose 1.6 g ai/10a, 14th day after treatment
Procedure: as §2, §3

[6] = tested on: common lambsquarters (Ch); experiment: Test Example 9: crop plant selectivity by upland field foliage treatment (wheat), herbicidal effects; format: in vivo; parameters: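 grade of growth control; 5 = at least 90%; 4 = 70 to 90%; 3 = 50 to 70%; 2 = 30 to 50%; 1 = 10 to 30%; 0 = under 10%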; conditions: dose 1.6 g ai/10a, 14th day after treatment
In short: as §1

[7] = tested on: China jute (Ab); experiment: as above; format: in vivo; parameters: scale not given here; conditions: dose 1.6 g ai/10a, 14th day after treatment
In short: as §1

[8] = tested on: slender amaranth (Am); experiment: as above; format: in vivo; parameters: scale not given here; conditions: dose 1.6 g ai/10a, 14th day after treatment
In short: as §1

[9] = tested on: pale smartweed (Po); experiment: as above; format: in vivo; parameters: scale not given here; conditions: dose 1.6 g ai/10a, 14th day after treatment
In short: as §1

[10] = tested on: soybean (Gl); experiment: Test Example 10: crop plant selectivity by upland field foliage treatment (soybean), phytotoxicity; conditions: dose 1.6 g ai/10a, 14th day after treatment
Procedure: as §2, §3

[11] = tested on: bulrush (Sc); experiment: Test Example 1: herbicidal effects by paddy field soil treatment; format: in vivo; conditions: 100 g of the active ingredient per 10 ares, 21st day after the application, index 0-5 of Table 47;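 also: grade of growth control; 5 = at least 90%; 4 = 70 to 90%; 3 = 50 to 70%; 2 = 30 to 50%; 1 = 10 to 30%; 0 = under 10%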
In short: (§4)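 Flooded paddy-soil pots (3 cm water) sown after puddling/leveling; treatment 100 g a.i./10 ares; greenhouse culture; herbicidal effect rated visually on a scoring scale at 21 d post-application.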

[12] = tested on: barnyardgrass (Ec); experiment: as above; format: in vivo; conditions: 100 g of the active ingredient per 10 ares, 21st day after the application, index 0-5 of Table 47
In short: as §4

[13] = tested on: monochoria (Mo); experiment: as above; format: in vivo; conditions: 100 g of the active ingredient per 10 ares, 21st day after the application, index 0-5 of Table 47;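 also: grade of growth control; 5 = at least 90%; 4 = 70 to 90%; 3 = 50 to 70%; 2 = 30 to 50%; 1 = 10 to 30%; 0 = under 10%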
In short: as §4

[14] = tested on: rice flatsedge (Ci); experiment: Test Example 3: herbicidal effects by upland field foliage treatment; format: in vivo; parameters: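 grade of growth control; 5 = at least 90%; 4 = 70 to 90%; 3 = 50 to 70%; 2 = 30 to 50%; 1 = 10 to 30%; 0 = under 10%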; conditions: 100 g of the active ingredient per 10 ares, evaluated on the 14th day after treatment
In short: (§5)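 Pot culture: sand, 120 cm^2 surface; seeds sown, soil-covered, greenhouse 2 weeks. Foliage treatment applied at that stage. Herbicidal effect rated by standard scale, day 14 post-treatment.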

[15] = tested on: barnyardgrass (Ec); experiment: as above; format: in vivo; parameters: scale not given here; conditions: 100 g of the active ingredient per 10 ares, evaluated on the 14th day after treatment
In short: as §5

[16] = tested on: common lambsquarters (Ch); experiment: as above; format: in vivo; parameters: scale not given here; conditions: 100 g of the active ingredient per 10 ares, evaluated on the 14th day after treatment
In short: as §5

[17] = tested on: slender amaranth (Am); experiment: as above; format: in vivo; parameters: scale not given here; conditions: 100 g of the active ingredient per 10 ares, evaluated on the 14th day after treatment
In short: as §5

[18] = tested on: Diaitaria ciliaris (Di); experiment: as above; format: in vivo; parameters: scale not given here; conditions: 100 g of the active ingredient per 10 ares, evaluated on the 14th day after treatment
In short: as §5

[19] = tested on: pale smartweed (Po); experiment: as above; format: in vivo; parameters: scale not given here; conditions: 100 g of the active ingredient per 10 ares, evaluated on the 14th day after treatment
In short: as §5

[20] = tested on: common lambsquarters (Ch); experiment: Test Example 11: crop plant selectivity by upland field foliage treatment (corn), herbicidal effects; format: in vivo; parameters: scale not given here; conditions: upland field foliage treatment (corn test), dose 1.6 g ai/10a, 14th day after treatment
In short: (§6)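 Corn and the weed species were sown together in sand-filled pots and grown in a greenhouse for 2 weeks before foliar treatment. Herbicidal effect was scored on day 14 after treatment against a graded standard scale, with corn phytotoxicity scored alongside.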

[21] = tested on: China jute (Ab); experiment: as above; format: in vivo; parameters: scale not given here; conditions: upland field foliage treatment (corn test), dose 1.6 g ai/10a, 14th day after treatment
In short: as §6

[22] = tested on: slender amaranth (Am); experiment: as above; format: in vivo; parameters: scale not given here; conditions: upland field foliage treatment (corn test), dose 1.6 g ai/10a, 14th day after treatment
In short: as §6

[23] = tested on: pale smartweed (Po); experiment: as above; format: in vivo; parameters: scale not given here; conditions: upland field foliage treatment (corn test), dose 1.6 g ai/10a, 14th day after treatment
In short: as §6

[24] = tested on: rice flatsedge (Ci); experiment: Test Example 2: herbicidal effects by upland field soil treatment; format: in vivo; conditions: 100 g of the active ingredient per 10 ares, 21st day after the application, index 0-5 of Table 47;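 also: grade of growth control; 5 = at least 90%; 4 = 70 to 90%; 3 = 50 to 70%; 2 = 30 to 50%; 1 = 10 to 30%; 0 = under 10%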
Source text: (§7) (Test on Herbicidal Effects by Upland Field Soil Treatment)

[25] = tested on: barnyardgrass (Ec); experiment: as above; format: in vivo; conditions: 100 g of the active ingredient per 10 ares, 21st day after the application, index 0-5 of Table 47
Source text: as §7

[26] = tested on: common lambsquarters (Ch); experiment: as above; format: in vivo; conditions: 100 g of the active ingredient per 10 ares, 21st day after the application, index 0-5 of Table 47
Source text: as §7

[27] = tested on: Digitaria ciliaris (Di); experiment: as above; format: in vivo; conditions: 100 g of the active ingredient per 10 ares, 21st day after the application, index 0-5 of Table 47
Source text: as §7

[28] = tested on: slender amaranth (Am); experiment: as above; format: in vivo; conditions: 100 g of the active ingredient per 10 ares, 21st day after the application, index 0-5 of Table 47
Source text: as §7

[29] = tested on: pale smartweed (Po); experiment: as above; format: in vivo; conditions: 100 g of the active ingredient per 10 ares, 21st day after the application, index 0-5 of Table 47
Source text: as §7

[30] = tested on: corn (Ze); experiment: Test Example 11: crop plant selectivity by upland field foliage treatment (corn), phytotoxicity; conditions: upland field foliage treatment, dose 1.6 g ai/10a, 14th day after treatment
In short: as §6

Structure (SMILES) | Phytotoxicity Tr [1] | Herbicidal effects Ch [2] | Herbicidal effects Ab [3] | Herbicidal effects Am [4] | Herbicidal effects Po [5] | Herbicidal effects Ch [6] | Herbicidal effects Ab [7] | Herbicidal effects Am [8] | Herbicidal effects Po [9] | Phytotoxicity Gl [10] | Herbicidal effects Ch [20] | Herbicidal effects Ab [21] | Herbicidal effects Am [22] | Herbicidal effects Po [23] | Herbicidal effects Ci [24] | Herbicidal effects Ec [25] | Herbicidal effects Ch [26] | Herbicidal effects Di [27] | Herbicidal effects Am [28] | Herbicidal effects Po [29] | further results
Cn1c(C(F)(F)F)ccc(-c2cc(OC3CCCC3)c(Cl)cc2F)c1=O [1-26] | 2 | 5 | 5 | 5 | 5 | 5 | 5 | 5 | 5 | 2 | 5 | 5 | 5 | 5 | 5 | 5 | 5 | 5 | 5 | 5 | Herbicidal effects Sc [11]: 5; Herbicidal effects Ec [12]: 5; Herbicidal effects Mo [13]: 5; Herbicidal effects Ci [14]: 5; Herbicidal effects Ec [15]: 5; Herbicidal effects Ch [16]: 5; Herbicidal effects Am [17]: 5; Herbicidal effects Di [18]: 5; Herbicidal effects Po [19]: 5; Phytotoxicity Ze [30]: 2
C#CCSc1cc(-c2ccc(C(F)(F)F)n(C)c2=O)c(Cl)cc1Cl [1-52] | 1 | 5 | 5 | 5 | 5 | 5 | 5 | 5 | 5 | 2 | 5 | 5 | 5 | 5 | 5 | 5 | 5 | 5 | 5 | 5 | Phytotoxicity Ze [30]: 2
CCC(=O)c1cc(-c2ccc(C(F)(F)F)n(C)c2=O)c(F)cc1Cl [1-69] | 1 | 5 | 5 | 5 | 5 | 5 | 5 | 5 | 5 | 2 | 5 | 5 | 5 | 5 | 5 | 5 | 5 | 5 | 5 | 5 | Herbicidal effects Sc [11]: 5; Herbicidal effects Ec [12]: 5; Herbicidal effects Mo [13]: 5; Herbicidal effects Ci [14]: 5; Herbicidal effects Ec [15]: 5; Herbicidal effects Ch [16]: 5; Herbicidal effects Am [17]: 5; Herbicidal effects Di [18]: 5; Herbicidal effects Po [19]: 5; Phytotoxicity Ze [30]: 2
